Reference: ChEMBL document CHEMBL4007424, “Design and Synthesis of Enantiomerically Pure Decahydroquinoxalines as Potent and Selective κ-Opioid Receptor Agonists with Anti-Inflammatory Activity in Vivo” (J Med Chem, 2017)
Calls of active or inactive are those of the source. No cut-off for these calls is given here.

Experiments:
Mus musculus [1] = experiment: Antiinflammatory activity in arachidonic acid-induced ear dermatitis ICR mouse model assessed as reduction in ear swelling at 0.1 mg administered twice tropically 30 mins prior and 15 mins after arachidonic acid addition measured 60 mins post arachidonic acid challenge relative to control; type: functional
Mus musculus [2] = experiment: (§1) Antiinflammatory activity in tropically administered oxazolone-induced delayed type hypersensitivity BALB/c mouse model assessed as reduction in CD4+ cells per 0.1 mm2 at 2.5 mg administered 3 hrs prior to oxazolone challenge on day 7 to 12 post sensitization followed by re-administration of compound on day 13 to 18 without oxazolone challenge measured on day 19 by DAPI-staining based fluorescence microscopic analysis relative to control; type: functional
Mu-type opioid receptor = Mu-type opioid receptor (Cavia porcellus, UniProt P97266); experiment: Displacement of [3H]DAMGO from mu-type opioid receptor in guinea pig brain membranes after 120 mins by solid scintillation counting; type: cell membranes, Membrane
Mus musculus [3] = experiment: Antiinflammatory activity in arachidonic acid-induced ear dermatitis ICR mouse model assessed as reduction in ear swelling at 1 mg administered twice tropically 30 mins prior and 15 mins after arachidonic acid addition measured 60 mins post arachidonic acid challenge relative to control; type: functional
[4] = biological target: Kappa-type opioid receptor (Cavia porcellus, UniProt P41144); experiment: Displacement of [3H]U-69,593 from kappa-type opioid receptor in guinea pig brain membranes after 120 mins by solid scintillation counting; type: cell membranes, Membrane
[5] = biological target: Kappa-type opioid receptor (Homo sapiens, UniProt P41145); experiment: Agonist activity at recombinant human kappa-type opioid receptor expressed in HEK293 cells after 30 mins by [35S]GTPgammaS binding assay; type: functional, cell-based
Mus musculus [6] = experiment: as §1, with “CD8+” for “CD4+”; type: functional
[7] = Displacement of [3H]DPDPE from delta-type opioid receptor in guinea pig brain membranes after 120 mins by solid scintillation counting; type: cell membranes, Cavia porcellus, Membrane
[8] = Lipophilicity, logD of the compound at pH 7.4 by LC/MS analysis; type: physicochemical; conditions: buffer
Mus musculus [9] = experiment: Antiinflammatory activity in arachidonic acid-induced ear dermatitis ICR mouse model assessed as reduction in ear swelling at 0.3 mg administered twice tropically 30 mins prior and 15 mins after arachidonic acid addition measured 60 mins post arachidonic acid challenge relative to control; type: functional
Mus musculus [10] = experiment: Antiinflammatory activity in arachidonic acid-induced ear dermatitis ICR mouse model assessed as reduction in ear swelling at 3 mg administered twice tropically 30 mins prior and 15 mins after arachidonic acid addition measured 60 mins post arachidonic acid challenge relative to control; type: functional
[11] = Drug level in Wistar Han rat brain at 0.3 mg/kg, iv measured 1 hr post compound administration; type: ADME, organism-based; conditions: read-out: Drug uptake
[12] = Plasma concentration in Wistar Han rat at 0.3 mg/kg, iv measured 0.25 hrs post compound administration; type: ADME, organism-based
[13] = Plasma concentration in Wistar Han rat at 0.3 mg/kg, iv measured 1 hr post compound administration; type: ADME, organism-based
[14] = Ratio of drug level in brain to plasma in Wistar Han rat at 0.3 mg/kg, iv after 0.25 hrs; type: ADME, organism-based; conditions: read-out: BPR
Rattus norvegicus [15] = experiment: Toxicity in Wistar Han rat assessed as induction of hunched or abnormal posture at 0.3 mg/kg, iv measured up to 2 hrs; type: organism-based; conditions: in vivo
[16] = Ratio of drug level in brain to plasma in Wistar Han rat at 0.3 mg/kg, iv after 1 hr; type: ADME, organism-based; conditions: read-out: BPR
Rattus norvegicus [17] = experiment: Toxicity in Wistar Han rat assessed as induction of lethargy at 0.3 mg/kg, iv measured up to 2 hrs; type: organism-based; conditions: in vivo
Mus musculus [18] = experiment: Toxicity in arachidonic acid-induced ear dermatitis ICR mouse model assessed as induction of modest to severe behaviour depression at 0.1 mg to 3 mg administered twice tropically 30 mins prior and 15 mins after arachidonic acid addition measured 60 mins post arachidonic acid challenge; conditions: in vivo, topical_or_ocular, 1 h
Mus musculus [19] = experiment: (§2) Antiinflammatory activity in oxazolone-induced delayed type hypersensitivity BALB/c mouse model assessed as hyperplastic epidrmis at 0.6 mg applied topically on ear administered 3 hrs prior to oxazolone challenge on day 7 to 12 post sensitization followed by re-administration of compound on day 13 to 18 without oxazolone challenge measured on day 19 by H and E staining based assay; type: functional
Mus musculus [20] = experiment: as §2, with “lymphocyte dermal infiltration” for “hyperplastic epidrmis”; type: functional
Mus musculus [21] = experiment: as §2, with “ear swelling” for “hyperplastic epidrmis”, “(reference value: 242 +/- 11 micrometer)” for “by H and E staining based assay”; type: functional
Mus musculus [22] = experiment: as §2, with “ear thickness level” for “hyperplastic epidrmis”; type: functional
Mus musculus [23] = experiment: as §2, with “mast cell dermal infiltration” for “hyperplastic epidrmis”; type: functional
Mus musculus [24] = experiment: as §2, with “neutrophil dermal infiltration” for “hyperplastic epidrmis”; type: functional
Mus musculus [25] = experiment: as §2, with “ear swelling” for “hyperplastic epidrmis”, “13 (reference value: 666 +/- 28 micrometer)” for “19 by H and E staining based assay”; type: functional
Mus musculus [26] = experiment: as §2, with “ear weight” for “hyperplastic epidrmis”, “(reference value: 30.2 +/- 0.7 mg)” for “by H and E staining based assay”; type: functional

Chain of Kappa-type opioid receptor (Cavia porcellus, UniProt P41144) (P41144 whole entry): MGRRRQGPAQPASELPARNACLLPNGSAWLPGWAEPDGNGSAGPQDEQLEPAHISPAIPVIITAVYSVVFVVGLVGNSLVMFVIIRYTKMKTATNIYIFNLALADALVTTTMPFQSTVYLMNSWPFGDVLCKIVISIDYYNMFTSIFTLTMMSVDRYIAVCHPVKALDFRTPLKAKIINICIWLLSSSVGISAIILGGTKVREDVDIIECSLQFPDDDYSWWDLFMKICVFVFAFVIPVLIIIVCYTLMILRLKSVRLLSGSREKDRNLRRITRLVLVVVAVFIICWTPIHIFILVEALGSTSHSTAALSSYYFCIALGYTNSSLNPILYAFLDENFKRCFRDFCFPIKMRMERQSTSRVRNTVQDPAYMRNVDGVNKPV
Chain of Kappa-type opioid receptor (Homo sapiens, UniProt P41145) (P41145 whole entry): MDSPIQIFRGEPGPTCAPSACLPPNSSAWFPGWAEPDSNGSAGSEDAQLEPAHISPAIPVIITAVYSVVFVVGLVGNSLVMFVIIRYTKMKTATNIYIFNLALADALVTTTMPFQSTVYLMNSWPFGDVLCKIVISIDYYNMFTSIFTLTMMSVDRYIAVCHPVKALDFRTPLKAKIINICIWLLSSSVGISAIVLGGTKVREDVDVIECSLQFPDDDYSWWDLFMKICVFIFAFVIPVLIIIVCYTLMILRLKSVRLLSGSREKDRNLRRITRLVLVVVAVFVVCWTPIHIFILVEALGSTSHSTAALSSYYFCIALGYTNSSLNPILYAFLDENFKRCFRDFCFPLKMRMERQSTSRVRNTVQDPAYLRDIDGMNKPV
Chain of Mu-type opioid receptor (P97266 whole entry): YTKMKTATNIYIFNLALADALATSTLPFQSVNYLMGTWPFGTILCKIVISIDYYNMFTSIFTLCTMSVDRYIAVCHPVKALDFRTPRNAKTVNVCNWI

In the case of `CS(=O)(=O)N1CCN(C(=O)Cc2ccc(Cl)c(Cl)c2)[C@@H]2[C@@H](N3CC[C@H](O)C3)CCC[C@@H]21`, the “inhibition (INH)” value (Mus musculus [1]) is reported as -4%, the “inhibition (INH)” value (Mus musculus [2]) is reported as 45% and the Ki (Mu-type opioid receptor) is reported as 336 nM. For the same molecule, the “inhibition (INH)” value (Mus musculus [3]) was 32%, the Ki [4] was 0.63 nM and the EC50 [5] was 1.8 nM. The “inhibition (INH)” value (Mus musculus [6]) was 45%, the Ki [7] was 367 nM and the logD [8] was 2.41. For the same molecule, the “inhibition (INH)” value (Mus musculus [9]) was -4% and the “inhibition (INH)” value (Mus musculus [10]) was 56%.
`COC(=O)N1CCN(C(=O)Cc2ccc(Cl)c(Cl)c2)[C@@H]2[C@@H](N3CCCC3)CCC[C@@H]21.Cl` gave a concentration at 1 h [11] of 24.2 ng/g, a concentration at 0.25 h [12] of 117 ng/mL and a concentration at 1 h [13] of 37.3 ng/mL. The Kp at 0.25 h [14] was 0.5, the Activity (Rattus norvegicus [15]) was “Toxic” and the Kp at 1 h [16] was 0.65. The Activity (Rattus norvegicus [17]) was “Toxic”.
With `COC(=O)N1CCN(C(=O)Cc2ccc(F)c(Cl)c2)[C@@H]2[C@@H](N3CC[C@H](F)C3)CCC[C@@H]21` the “inhibition (INH)” value (Mus musculus [1]) was 25%, the “inhibition (INH)” value (Mus musculus [3]) was 66% and the Activity (Mus musculus [18]) was “Toxic”. The Ki [4] was 0.56 nM, the EC50 [5] was 0.4 nM and the Ki [7] was 74 nM. For the same molecule, the “inhibition (INH)” value (Mus musculus [9]) was 40% and the “inhibition (INH)” value (Mus musculus [10]) was 60%.
For `C[C@]12CCC(=O)C=C1CC[C@@H]1[C@@H]2[C@@H](O)C[C@@]2(C)[C@H]1CC[C@]2(O)C(=O)CO` [HYDROCORTISONE], the Activity (Mus musculus [19]) was “Active”, the Activity (Mus musculus [20]) was “Active” and the Activity (Mus musculus [21]) was 66 um. For the same molecule, the Activity (Mus musculus [22]) was “Active”, the Activity (Mus musculus [23]) was “Active” and the Activity (Mus musculus [24]) was “Active”. It also gave an Activity (Mus musculus [25]) of 332 um and an Activity (Mus musculus [26]) of 17.2 mg.
